PubChem BioAssay AID2060325 (Molecular Pharmacology Branch, DTP, NCI, 2025)
“And” between values parts separate entries of the source, which are not always exact repeats. Equal values may be shown once. One block for each molecule: values may come before it.

Test system: SK-OV-3 multi-cell spheroids, viability
Test: Anticancer human tumor SK-OV-3 cell line growth inhibition [IpAb];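 as to viability, T/C: viability read after seven days of drug exposure; percent of DMSO vehicle control luminescence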
Settings: for viability, T/C: stronger effect = lower value
Procedure, shortened: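 Spheroids of 60% malignant cells, 25% HUVEC and 15% MSC were exposed to targeted agents combined with ipatasertib or abemaciclib. Doses started at or near clinical Cmax (10 microM when unknown) and fell in half-log steps.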

[1] = curve of first compound, second compound 0.1 µM
[2] = curve of first compound, second compound 0.316 µM
[3] = curve of first compound, second compound 1 µM
[4] = second compound 0.1 µM, first compound 0.0316 µM
[5] = second compound 0.1 µM, first compound 0.1 µM
[6] = second compound 0.1 µM, first compound 0.316 µM
[7] = second compound 0.1 µM, first compound 1 µM
[8] = second compound 0.1 µM, first compound 3.16 µM
[9] = second compound 0.1 µM, first compound 10 µM
[10] = second compound 0.316 µM, first compound 0.0316 µM
[11] = second compound 0.316 µM, first compound 0.1 µM
[12] = second compound 0.316 µM, first compound 0.316 µM
[13] = second compound 0.316 µM, first compound 1 µM
[14] = second compound 0.316 µM, first compound 3.16 µM
[15] = second compound 0.316 µM, first compound 10 µM
[16] = second compound 1 µM, first compound 0.0316 µM
[17] = second compound 1 µM, first compound 0.1 µM
[18] = second compound 1 µM, first compound 0.316 µM
[19] = second compound 1 µM, first compound 1 µM
[20] = second compound 1 µM, first compound 3.16 µM
[21] = second compound 1 µM, first compound 10 µM
[22] = curve of first compound, second compound 0.01 µM
[23] = curve of first compound, second compound 0.0316 µM

SMILES: C=CC(=O)N1CCN(c2nc(=O)n(-c3c(C)ccnc3C(C)C)c3nc(-c4c(O)cccc4F)c(F)cc23)C(C)C1 (stereo not drawn) + CC(C)NCC(C(=O)N1CCN(c2ncnc3c2C(C)CC3O)CC1)c1ccc(Cl)cc1
IC50 [1]: 7190 nM
IC50 [2]: < 31.6 nM
IC50 [3]: < 31.6 nM
IC50 (curve of first compound, second compound 3.16 µM): < 31.6 nM
IC50 (curve of first compound, second compound 10 µM): < 31.6 nM
viability, T/C [4]: 75.9%
viability, T/C [5]: 80.2%
viability, T/C [6]: 77.7%
viability, T/C [7]: 76.3%
viability, T/C [8]: 72.7%
viability, T/C [9]: 41%
viability, T/C [10]: 35.8%
viability, T/C [11]: 39.4%
viability, T/C [12]: 39.6%
viability, T/C [13]: 38.7%
viability, T/C [14]: 39.5%
viability, T/C [15]: 26.2%
viability, T/C [16]: 21.1%
viability, T/C [17]: 19.1%
viability, T/C [18]: 21.4%
viability, T/C [19]: 23.8%
viability, T/C [20]: 24.6%
viability, T/C [21]: 16.9%
viability, T/C (second compound 3.16 µM, first compound 0.0316 µM): 14.8%
viability, T/C (second compound 3.16 µM, first compound 0.1 µM): 17.1%
viability, T/C (second compound 3.16 µM, first compound 0.316 µM): 16.4%
viability, T/C (second compound 3.16 µM, first compound 1 µM): 18.2%
viability, T/C (second compound 3.16 µM, first compound 3.16 µM): 17%
viability, T/C (second compound 3.16 µM, first compound 10 µM): 11.2%
viability, T/C (second compound 10 µM, first compound 0.0316 µM): 9.96%
viability, T/C (second compound 10 µM, first compound 0.1 µM): 10.9%
viability, T/C (second compound 10 µM, first compound 0.316 µM): 10.4%
viability, T/C (second compound 10 µM, first compound 1 µM): 10.8%
viability, T/C (second compound 10 µM, first compound 3.16 µM): 10.9%
viability, T/C (second compound 10 µM, first compound 10 µM): 6.35%

IC50 (curve of compound): 189 nM and 212 nM
SMILES: CC(C)(C)c1cnc(CSc2cnc(NC(=O)C3CCNCC3)s2)o1
viability, T/C (compound 0.00949 µM): 111% and 106%
viability, T/C (compound 0.03 µM): 119% and 113%
viability, T/C (compound 0.0949 µM): 120% and 117%
viability, T/C (compound 0.3 µM): 14.5% and 23.1%
viability, T/C (compound 0.949 µM): 0.98% and 1.33%
viability, T/C (compound 3 µM): 0.95% and 1.2%

SMILES: Cn1ncc(Cl)c1-c1cc(C(=O)NC(CN)Cc2cccc(F)c2)sc1Cl (stereo not drawn) + CCN1CCN(Cc2ccc(Nc3ncc(F)c(-c4cc(F)c5nc(C)n(C(C)C)c5c4)n3)nc2)CC1
IC50 [22]: 66 nM
IC50 [23]: 34.7 nM
IC50 [1]: < 31.6 nM
IC50 [2]: < 31.6 nM
IC50 [3]: < 31.6 nM
viability, T/C (second compound 0.01 µM, first compound 0.0316 µM): 66.5%
viability, T/C (second compound 0.01 µM, first compound 0.1 µM): 41%
viability, T/C (second compound 0.01 µM, first compound 0.316 µM): 22.1%
viability, T/C (second compound 0.01 µM, first compound 1 µM): 14.1%
viability, T/C (second compound 0.01 µM, first compound 3.16 µM): 6.99%
viability, T/C (second compound 0.01 µM, first compound 10 µM): 0.34%
viability, T/C (second compound 0.0316 µM, first compound 0.0316 µM): 52.8%
viability, T/C (second compound 0.0316 µM, first compound 0.1 µM): 30.6%
viability, T/C (second compound 0.0316 µM, first compound 0.316 µM): 22.3%
viability, T/C (second compound 0.0316 µM, first compound 1 µM): 13.8%
viability, T/C (second compound 0.0316 µM, first compound 3.16 µM): 7.67%
viability, T/C (second compound 0.0316 µM, first compound 10 µM): 0.51%
viability, T/C [4]: 42.7%
viability, T/C [5]: 26.7%
viability, T/C [6]: 18.1%
viability, T/C [7]: 12.9%
viability, T/C [8]: 7.38%
viability, T/C [9]: 0.3%
viability, T/C [10]: 43.3%
viability, T/C [11]: 29.8%
viability, T/C [12]: 20%
viability, T/C [13]: 15.1%
viability, T/C [14]: 8.84%
viability, T/C [15]: 0.17%
viability, T/C [16]: 36.3%
viability, T/C [17]: 34.7%
viability, T/C [18]: 24.4%
viability, T/C [19]: 17.8%
viability, T/C [20]: 12.2%
viability, T/C [21]: 0.39%

SMILES: CC(=O)c1c(C)c2cnc(Nc3ccc(N4CCNCC4)cn3)nc2n(C2CCCC2)c1=O + CCN1CCN(Cc2ccc(Nc3ncc(F)c(-c4cc(F)c5nc(C)n(C(C)C)c5c4)n3)nc2)CC1
IC50 [22]: 274 nM
IC50 [23]: 63.1 nM
IC50 [1]: 8.82 nM
IC50 [2]: 2.61 nM
IC50 [3]: < 0.949 nM
viability, T/C (second compound 0.01 µM, first compound 0.000949 µM): 79.7%
viability, T/C (second compound 0.01 µM, first compound 0.003 µM): 77.4%
viability, T/C (second compound 0.01 µM, first compound 0.00949 µM): 66%
viability, T/C (second compound 0.01 µM, first compound 0.03 µM): 57.5%
viability, T/C (second compound 0.01 µM, first compound 0.0949 µM): 53.3%
viability, T/C (second compound 0.01 µM, first compound 0.3 µM): 48.9%
viability, T/C (second compound 0.0316 µM, first compound 0.000949 µM): 68%
viability, T/C (second compound 0.0316 µM, first compound 0.003 µM): 62.5%
viability, T/C (second compound 0.0316 µM, first compound 0.00949 µM): 56.5%
viability, T/C (second compound 0.0316 µM, first compound 0.03 µM): 50.9%
viability, T/C (second compound 0.0316 µM, first compound 0.0949 µM): 49.1%
viability, T/C (second compound 0.0316 µM, first compound 0.3 µM): 46.7%
viability, T/C (second compound 0.1 µM, first compound 0.000949 µM): 57.7%
viability, T/C (second compound 0.1 µM, first compound 0.003 µM): 52.3%
viability, T/C (second compound 0.1 µM, first compound 0.00949 µM): 51.8%
viability, T/C (second compound 0.1 µM, first compound 0.03 µM): 46.9%
viability, T/C (second compound 0.1 µM, first compound 0.0949 µM): 40.5%
viability, T/C (second compound 0.1 µM, first compound 0.3 µM): 42%
viability, T/C (second compound 0.316 µM, first compound 0.000949 µM): 51.5%
viability, T/C (second compound 0.316 µM, first compound 0.003 µM): 49%
viability, T/C (second compound 0.316 µM, first compound 0.00949 µM): 51%
viability, T/C (second compound 0.316 µM, first compound 0.03 µM): 45.6%
viability, T/C (second compound 0.316 µM, first compound 0.0949 µM): 45.5%
viability, T/C (second compound 0.316 µM, first compound 0.3 µM): 46.8%
viability, T/C (second compound 1 µM, first compound 0.000949 µM): 41.4%
viability, T/C (second compound 1 µM, first compound 0.003 µM): 43.1%
viability, T/C (second compound 1 µM, first compound 0.00949 µM): 42.3%
viability, T/C (second compound 1 µM, first compound 0.03 µM): 35.9%
viability, T/C (second compound 1 µM, first compound 0.0949 µM): 39.2%
viability, T/C (second compound 1 µM, first compound 0.3 µM): 42.4%

IC50 (curve of compound): 7130 nM and 9740 nM
SMILES: CCCS(=O)(=O)Nc1ccc(F)c(C(=O)c2c[nH]c3ncc(-c4ccc(Cl)cc4)cc23)c1F
viability, T/C (compound 0.0316 µM): 116% and 100%
viability, T/C (compound 0.1 µM): 101% and 100%
viability, T/C (compound 0.316 µM): 108%
viability, T/C (compound 1 µM): 102% and 108%
viability, T/C (compound 3.16 µM): 89.4% and 88.4%
viability, T/C (compound 10 µM): 33.9% and 49.1%

IC50 (curve of compound): > 300 nM and 253 nM
SMILES: CC(=O)c1c(C)c2cnc(Nc3ccc(N4CCNCC4)cn3)nc2n(C2CCCC2)c1=O
viability, T/C (compound 0.000949 µM): 95.2% and 104%
viability, T/C (compound 0.003 µM): 88.7% and 83.4%
viability, T/C (compound 0.00949 µM): 75.1% and 80.8%
viability, T/C (compound 0.03 µM): 60.9% and 56.5%
viability, T/C (compound 0.0949 µM): 56.6% and 55%
viability, T/C (compound 0.3 µM): 54.1% and 49.9%

IC50 (curve of compound): 139 nM and 128 nM
SMILES: C=CCn1c(=O)c2cnc(Nc3ccc(N4CCN(C)CC4)cc3)nc2n1-c1cccc(C(C)(C)O)n1
viability, T/C (compound 0.0316 µM): 89.6% and 97.2%
viability, T/C (compound 0.1 µM): 64.6% and 59.2%
viability, T/C (compound 0.316 µM): 13.3% and 15.5%
viability, T/C (compound 1 µM): 8.1% and 7.49%
viability, T/C (compound 3.16 µM): 4.13% and 4.87%
viability, T/C (compound 10 µM): 6.98% and 5.63%
